Experimental data: patent US8440724B2, “Inhibiting neurotransmitter reuptake” (Mayo Foundation for Medical Education and Research, priority 2008, dated 2013)
“Also recorded” adds a separate entry of the source. Read-outs that look alike come from different tables or passages of the source.

Assays:
[1] = target: T1, human serotonin transporter (hSERT) (Homo sapiens, UniProt P31645); experiment: Radioligand binding to cloned hSERT, [3H]citalopram, HEK-293 cell membranes; details: for Kd: Geometric Mean ± SEM, HCl salts, read-out: Equilibrium Dissociation Constant (KD) for Transporter Binding, hSERT (S); for Binding at hSERT compared to PRC200-SS: in words
T1 construct: expressed in transfected cells; host or cells: HEK-293, stably transfected
T1 sequence (P31645 whole entry): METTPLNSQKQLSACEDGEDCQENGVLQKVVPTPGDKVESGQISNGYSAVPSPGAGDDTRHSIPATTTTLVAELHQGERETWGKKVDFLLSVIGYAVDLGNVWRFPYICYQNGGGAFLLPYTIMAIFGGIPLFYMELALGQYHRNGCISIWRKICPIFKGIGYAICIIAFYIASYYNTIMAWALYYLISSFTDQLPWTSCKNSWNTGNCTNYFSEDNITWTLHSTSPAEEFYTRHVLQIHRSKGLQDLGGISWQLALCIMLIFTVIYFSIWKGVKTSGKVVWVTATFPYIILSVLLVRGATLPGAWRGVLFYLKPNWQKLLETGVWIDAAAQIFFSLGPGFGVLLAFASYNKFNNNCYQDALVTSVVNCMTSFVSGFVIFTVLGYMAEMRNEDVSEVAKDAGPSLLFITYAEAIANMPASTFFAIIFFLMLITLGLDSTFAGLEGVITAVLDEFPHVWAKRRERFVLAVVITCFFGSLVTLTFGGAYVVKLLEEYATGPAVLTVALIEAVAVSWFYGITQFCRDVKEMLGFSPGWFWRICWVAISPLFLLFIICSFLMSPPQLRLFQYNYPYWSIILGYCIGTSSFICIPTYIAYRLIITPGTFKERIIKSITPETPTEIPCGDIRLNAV
Protocol: (§1) HEK-293 cells expressing the recombinant hSERT or hDAT were incubated with Dulbecco's modified Eagles medium (MEM) supplemented with 0.1 mM nonessential amino acid solution for MEM, 5% v/v fetal bovine serum and 1 U/mL penicillin/streptomycin solution. Cells expressing the hNET transporter were incubated with Dulbecco's modified Eagles medium supplemented with 10% v/v fetal bovine serum and 100 U/mL penicillin/streptomycin solution and 2 mM L-glutamine. The cells were grown until 70-80% confluent on 175 cm^2 flasks in a humidified 10% CO2/90% air environment at 37° C., with the selecting antibiotic Geneticin sulfate at 250 μg/mL. The cells were incubated in 10% CO2, 90% air at 37° C. and 100% humidity.
(§2) Cell membranes containing hSERT, hNET, or hDAT were prepared from the cell lines to assay ligand binding for each of the transporters. […] The washed cells were incubated for 5 minutes at 37° C. in 10 mL solution 1 containing 100 mM ethylene glycol-bis N,N,N′,N′-tetraacetic acid (EGTA). The cells were then scraped from the flask surface with a rubber spatula, placed into a centrifuge tube, and collected by centrifugation at 1000×g for 5 minutes at 4° C. The resulting supernatant was discarded, and the cell pellet was resuspended in 0.5 to1.0 mL of the appropriate binding buffer (described below). The resuspended cell pellet was homogenized using a Polytron for 10 seconds at setting 6. The resulting homogenate was centrifuged at about 36,000×g for 10 minutes at 4° C. The supernatant was discarded, and the pellet was resuspended in the same volume of the appropriate binding buffer and centrifuged again. The supernatant was discarded, and the final pellet containing cell membranes was resuspended in the appropriate binding buffer and stored at −80° C. until use.
Radioligand binding assays for the indicated transporters were performed as follows. To assess binding to the cloned hSERT, cells expressing hSERT were homogenized in 50 mM Tris-HCl with 120 mM NaCl and 5 mM KCl (pH 7.4). The binding reaction consisted of 10 μg cell membrane protein, […] [^3H]citalopram (citalopram, [N-methyl-^3H], specific activity 79.0 Ci/mmol; PerkinElmer, Boston, Mass.), and varying concentrations of either unlabeled citalopram or the test compound. A reaction to determine non-specific binding consisted of 10 μg cell membrane protein, 0.5 nM [^3H]citalopram, and 1 μM final concentration of unlabeled citalopram. The reactions were incubated at 22° C. for 60 minutes. Following incubation, the reactions were terminated by rapid filtration through separate GF/B filter strips pretreated with 0.2% polyethylenimine in a 48-well Brandel cell harvester. The cell membrane-containing filter strips were then rinsed five times with ice-cold 0.9% NaCl. After rinsing, individual filters were cut from the strip and placed in a scintillation vial containing 6.5 mL of Redi-Safe (Beckman-Coulter, Fullerton, Calif.).
(§3) The program was modified to calculate the Hill coefficient (nH). Data are presented as geometric mean±S.E.M. of at least three independent experiments. One-component models and two-component models were compared using the root mean square error of each fit and the F test.

[2] = target: T2, human dopamine transporter (hDAT) (Homo sapiens, UniProt Q01959); experiment: Radioligand binding to cloned hDAT, [3H]WIN35428, HEK-293 cell membranes
T2 construct: expressed in transfected cells; host or cells: HEK-293, stably transfected
T2 sequence (Q01959 whole entry): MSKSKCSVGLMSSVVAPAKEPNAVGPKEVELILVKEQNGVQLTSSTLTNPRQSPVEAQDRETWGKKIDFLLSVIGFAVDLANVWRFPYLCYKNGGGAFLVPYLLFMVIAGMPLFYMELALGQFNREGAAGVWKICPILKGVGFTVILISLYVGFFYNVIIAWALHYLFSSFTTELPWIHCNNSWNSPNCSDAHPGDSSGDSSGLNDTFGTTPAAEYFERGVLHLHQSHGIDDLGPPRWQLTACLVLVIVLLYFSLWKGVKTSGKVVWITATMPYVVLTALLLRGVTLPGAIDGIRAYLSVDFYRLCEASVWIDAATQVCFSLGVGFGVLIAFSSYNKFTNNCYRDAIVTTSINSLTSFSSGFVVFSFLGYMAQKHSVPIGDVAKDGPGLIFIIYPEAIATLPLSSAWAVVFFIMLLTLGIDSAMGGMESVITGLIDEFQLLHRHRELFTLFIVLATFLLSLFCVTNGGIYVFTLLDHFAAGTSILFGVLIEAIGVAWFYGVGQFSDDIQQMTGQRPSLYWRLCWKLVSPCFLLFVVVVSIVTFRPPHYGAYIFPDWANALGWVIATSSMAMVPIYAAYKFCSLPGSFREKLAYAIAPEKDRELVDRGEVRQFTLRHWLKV
Protocol: as §1, §2
To assess binding to the cloned hDAT, cells expressing hDAT were homogenized in 50 mM Tris-HCl with 120 mM NaCl (pH 7.4). The binding reaction contained 15 μg cell membrane protein, 1 nM [^3H]WIN35428 (WIN35428, [N-methyl-^3H], specific activity 85.9 Ci/mmol; PerkinElmer, Boston, Mass.), and varying concentrations of either unlabeled WIN35428 or the test compound. A reaction to determine non-specific binding contained 15 μg cell membrane protein, 1 nM [^3H]WIN35428, and 10 μM final concentration of unlabeled WIN35428. The reactions were incubated at 22° C. for 1 hour. Following incubation, the reactions were terminated by rapid filtration through separate GF/B filter strips pretreated with 0.2% polyethylenimine in a 48-well Brandel cell harvester. The cell membrane-containing filter strips were then rinsed five times with ice-cold 0.9% NaCl. After rinsing, individual filters were cut from the strip and placed in a scintillation vial containing 6.5 mL of Redi-Safe (Beckman-Coulter, Fullerton, Calif.).
as §3

[3] = target: T3, human norepinephrine transporter (hNET) (Homo sapiens, UniProt P23975); experiment: Radioligand binding to cloned hNET, [3H]nisoxetine, HEK-293 cell membranes; details: Geometric Mean ± SEM; HCl salts; read-out: Equilibrium Dissociation Constant (KD) for Transporter Binding, hNET (N)
T3 construct: expressed in transfected cells; host or cells: HEK-293, stably transfected
T3 sequence (P23975 whole entry): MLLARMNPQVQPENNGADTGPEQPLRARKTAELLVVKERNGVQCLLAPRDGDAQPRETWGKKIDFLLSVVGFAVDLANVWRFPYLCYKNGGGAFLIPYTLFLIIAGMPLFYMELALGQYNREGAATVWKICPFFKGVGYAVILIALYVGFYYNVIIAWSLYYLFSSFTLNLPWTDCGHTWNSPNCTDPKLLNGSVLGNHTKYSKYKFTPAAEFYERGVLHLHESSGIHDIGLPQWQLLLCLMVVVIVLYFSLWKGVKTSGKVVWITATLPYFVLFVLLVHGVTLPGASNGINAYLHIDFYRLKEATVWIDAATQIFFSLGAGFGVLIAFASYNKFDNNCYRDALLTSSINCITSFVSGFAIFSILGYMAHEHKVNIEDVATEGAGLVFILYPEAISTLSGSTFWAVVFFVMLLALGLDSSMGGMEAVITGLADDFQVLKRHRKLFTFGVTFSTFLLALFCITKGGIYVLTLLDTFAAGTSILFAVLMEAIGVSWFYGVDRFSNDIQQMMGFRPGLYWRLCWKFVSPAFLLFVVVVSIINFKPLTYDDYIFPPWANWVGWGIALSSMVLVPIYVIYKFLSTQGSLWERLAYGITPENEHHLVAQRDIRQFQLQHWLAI
Protocol: as §1, §2
To assess binding to the cloned hNET, cells expressing hNET were homogenized in 50 mM Tris-HCl with 300 mM NaCl and 5 mM KCl (pH 7.4). The binding reaction consisted of 5 μg cell membrane protein, 0.5 nM [^3H]nisoxetine (nisoxetine HCl, [N-methyl-^3H], specific activity 82.0 Ci/mmol; Amersham, Arlington Hts., Ill.), and varying concentrations of either unlabeled nisoxetine or the test compound. A reaction to determine non-specific binding consisted of 5 μg cell membrane protein, 0.5 nM [^3H]nisoxetine, and 1 μM final concentration of unlabeled nisoxetine. The reactions were incubated at 22° C. for 60 minutes. Following incubation, the reactions were terminated by rapid filtration through separate GF/B filter strips pretreated with 0.2% polyethylenimine in a 48-well Brandel cell harvester. The cell membrane-containing filter strips were then rinsed five times with ice-cold 0.9% NaCl. After rinsing, individual filters were cut from the strip and placed in a scintillation vial containing 6.5 mL of Redi-Safe (Beckman-Coulter, Fullerton, Calif.).
as §3

hSERT, hNET, hDAT = experiment: Human transporter binding: rank order and range of potency over the three transporters; details: for Potency (rank-order of potency of binding; S = hSERT, N = hNET, D = hDAT): from KD values; for Potency Range (difference between most potent and least potent binding): ratio of KD over hSERT, hNET, hDAT
From the text: as §3

Male Sprague-Dawley rats = experiment: Forced swim test in rats; type: in vivo, rat; details: for Antidepressant activity in forced swim test compared with imipramine (15 mg/kg IP): FIG. 12A
Protocol: When rats are placed in a cylinder of water from which they cannot escape, they will remain immobile in the water for the majority of the test.
Water was changed between trials, and the procedure involved a pretest and a 5-minute test separated by 24 hours. During the pretest, rats (adapted to the experimental room for no less than one hour) were placed in the cylinder for 15 minutes. Following this initial exposure, the rats were dried with towels and transferred to a “drying cage” situated under a warming lamp. […] The following day, rats were transferred to the experimental room and acclimated for at least one hour.
The rat was considered immobile when floating motionless or making only those movements necessary to keep its head above the surface of the water. Scores for each behavior (swimming or immobility) were expressed as total counts per 5-minute session. Statistical analysis was performed using ANOVA followed by the Tukey test for post-hoc comparisons.

hERG = hERG (Homo sapiens, UniProt Q12809); experiment: hERG assay: block of rubidium ion (Rb+) efflux from cells expressing hERG
Chain of hERG (Q12809 whole entry): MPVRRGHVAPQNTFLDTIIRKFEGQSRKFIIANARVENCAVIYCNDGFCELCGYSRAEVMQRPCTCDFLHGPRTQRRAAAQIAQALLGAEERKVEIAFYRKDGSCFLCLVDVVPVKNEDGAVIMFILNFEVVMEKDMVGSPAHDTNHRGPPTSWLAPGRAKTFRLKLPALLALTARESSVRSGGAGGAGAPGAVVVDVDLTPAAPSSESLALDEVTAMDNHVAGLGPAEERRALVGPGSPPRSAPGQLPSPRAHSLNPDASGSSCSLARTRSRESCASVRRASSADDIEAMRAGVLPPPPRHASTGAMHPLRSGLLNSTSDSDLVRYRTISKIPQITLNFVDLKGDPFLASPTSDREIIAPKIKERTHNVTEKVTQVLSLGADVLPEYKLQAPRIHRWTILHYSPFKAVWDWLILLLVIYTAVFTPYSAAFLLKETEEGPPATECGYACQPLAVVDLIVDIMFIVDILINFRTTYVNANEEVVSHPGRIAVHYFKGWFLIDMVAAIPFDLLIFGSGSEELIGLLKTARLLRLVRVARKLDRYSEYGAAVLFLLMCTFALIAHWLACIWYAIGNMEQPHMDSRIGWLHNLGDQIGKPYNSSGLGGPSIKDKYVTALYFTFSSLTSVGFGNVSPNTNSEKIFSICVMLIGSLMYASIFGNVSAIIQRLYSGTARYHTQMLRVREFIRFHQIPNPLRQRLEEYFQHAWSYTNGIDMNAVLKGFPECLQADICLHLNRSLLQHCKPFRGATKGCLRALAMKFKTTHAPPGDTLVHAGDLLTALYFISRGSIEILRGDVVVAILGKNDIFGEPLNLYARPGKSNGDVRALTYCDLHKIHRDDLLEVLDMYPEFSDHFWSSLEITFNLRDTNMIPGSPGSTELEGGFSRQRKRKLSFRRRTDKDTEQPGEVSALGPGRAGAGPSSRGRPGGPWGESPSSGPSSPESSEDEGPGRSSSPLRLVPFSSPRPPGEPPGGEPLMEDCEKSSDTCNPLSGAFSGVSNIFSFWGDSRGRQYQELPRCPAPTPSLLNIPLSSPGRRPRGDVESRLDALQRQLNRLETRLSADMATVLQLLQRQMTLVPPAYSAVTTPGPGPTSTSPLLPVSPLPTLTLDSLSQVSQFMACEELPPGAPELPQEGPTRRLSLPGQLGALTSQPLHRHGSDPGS
Protocol: Human “ether-a-go-go” (hERG) is an ion channel. Blockade of this channel can be predictive of causing cardiac arrhythmias in humans. hERG assays were performed to measure the ability of a compound to block rubidium ion (Rb^+) efflux from cells expressing hERG. Cells were pre-loaded with Rb^+, incubated with test compound, and then exposed to a buffer that opens the channel and allows the efflux of ions. Compounds as powder were dissolved in 100% DMSO to prepare 100 mM stock solutions. […] The stocks were stored at 23° C.
The range of doses for the test compounds was 30 nM through 100,000 nM.

CYP2D6 = target: T4, CYP2D6 (Homo sapiens, UniProt P10635); experiment: CYP2D6 inhibition, CYP2D6/AMMC kit (BD Biosciences), fluorescent substrate; type: in vitro ADME
T4 construct: purchased BD Biosciences 459200
T4 sequence (P10635 whole entry): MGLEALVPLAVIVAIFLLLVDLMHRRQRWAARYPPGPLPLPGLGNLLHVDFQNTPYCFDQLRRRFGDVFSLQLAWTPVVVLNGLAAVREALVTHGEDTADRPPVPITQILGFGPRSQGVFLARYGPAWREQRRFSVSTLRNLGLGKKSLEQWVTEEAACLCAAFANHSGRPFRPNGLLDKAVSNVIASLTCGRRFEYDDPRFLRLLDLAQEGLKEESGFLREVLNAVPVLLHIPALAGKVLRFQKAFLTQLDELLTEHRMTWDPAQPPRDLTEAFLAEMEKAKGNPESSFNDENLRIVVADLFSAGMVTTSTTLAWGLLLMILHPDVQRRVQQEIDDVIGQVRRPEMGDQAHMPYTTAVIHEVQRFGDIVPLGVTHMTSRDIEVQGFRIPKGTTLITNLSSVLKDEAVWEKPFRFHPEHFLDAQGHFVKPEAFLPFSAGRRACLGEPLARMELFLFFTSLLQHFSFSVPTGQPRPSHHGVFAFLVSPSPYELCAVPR
From the text: This kit includes the use of a fluorescent P450 substrate (AMMC or 3-[2-(N,N-diethyl-N-methylamino)ethyl]-7-methoxy-4-methylcoumarin) and recombinant human P450.

[4] = test system: rat 5-HT, NE and DA transport, synaptosomal preparations; experiment: Rat brain synaptosomal transport: rank order of potency; type: biochemical
Protocol: The dissected tissues were separately homogenized in 20 volumes (cortical) or 40 volumes (striatal) of ice-cold, oxygenated HEPES buffer 0.32 M sucrose containing 11 mM glucose (pH 7.4) in a glass Potter-Elvehjem homogenizer with Teflon® pestle (8 strokes, 900 rpm). The homogenates were centrifuged at 1,000×g for 10 minutes. The resulting supernatant was decanted and further centrifuged at 20,000×g for 20 minutes at 4° C. […] The synaptosomal protein concentration was determined by using the BCA assay (Pierce Biotechnology Inc, Rockford, Ill.), according to the manufacturer's instructions. Synaptosomal protein (1.0-2.5 mg) was suspended in 1 mL oxygenated incubation buffer as defined above. Test amine compound was pre-incubated with the synaptosomal preparation for 30 minutes at 37° C. in a shaking water bath (80 oscillations/minute).

[5] = Geometric Mean ± SEM, HCl salts, read-out: Equilibrium Dissociation Constant (KD) for Transporter Binding, hDAT (D)

Compound | Kd [1] [nM] | Binding at hSERT compared to PRC200-SS [1] | Kd [2] [nM] | Kd [3] [nM] | Potency (rank-order of potency of binding; S = hSERT, N = hNET, D = hDAT) (hSERT, hNET, hDAT) | Potency Range (difference between most potent and least potent binding) (hSERT, hNET, hDAT) [fold] | Immobility in forced swim test vs saline (Male Sprague-Dawley rats; 5 mg/kg IP) | Swimming in forced swim test vs saline (Male Sprague-Dawley rats; 5 mg/kg IP) | Antidepressant activity in forced swim test compared with imipramine (15 mg/kg IP) (Male Sprague-Dawley rats; 5 mg/kg IP) | Kd [2, 5] [nM] | further results
CNC[C@H](c1ccc2ccccc2c1)[C@@H](Cl)c1ccccc1 [MCJ001-Cl-RS, (2S,3R)-3-chloro-N-methyl-2-(naphthalen-2-yl)-3-phenylpropan-1-amine] | 1.1 ± 0.1 | greater binding at hSERT | 7.9 ± 0.4 | 10.4 ± 0.4 | S > D > N | 9.5 | statistically (P<0.04) less immobility | statistically (P<0.04) more swimming behavior | antidepressant activity that was similar to that observed in rats treated with the positive control |  | Binding at hDAT compared to PRC200-SS ([2]; in words): several fold more potent binding at hDAT
CNC[C@H](c1ccc2ccccc2c1)[C@H](Cl)c1ccccc1 [MCJ001-Cl-SS, (2S,3S)-3-chloro-N-methyl-2-(naphthalen-2-yl)-3-phenylpropan-1-amine] | 1.1 ± 0.1 | greater binding at hSERT | 78 ± 5 | 3.7 ± 0.5 | S > N > D | 71 | statistically (P<0.04) less immobility | statistically (P<0.04) more swimming behavior | antidepressant activity that was similar to that observed in rats treated with the positive control |  | IC50 (hERG): 45400 nM
CNC[C@@H](c1ccc2ccccc2c1)[C@H](N)c1ccccc1 [MCJ001-NH2-SR, (2R,3S)-N1-methyl-2-(naphthalen-2-yl)-3-phenylpropane-1,3-diamine] | 180 ± 10 |  |  | 166 ± 8 | N > S > D | 1.6 |  |  |  | 260 ± 20 | IC50 (CYP2D6): 4100 nM
CNC[C@H](c1ccc2ccccc2c1)[C@H](OC(C)=O)c1ccccc1 [MCJ001-OAc-SS, (1S,2S)-3-(methylamino)-2-(naphthalen-2-yl)-1-phenylpropyl acetate] | 55 ± 6 |  |  |  | N > S > D | 3.4 | statistically (P<0.04) less immobility | statistically (P<0.04) more swimming behavior | antidepressant activity that was similar to that observed in rats treated with the positive control | 150 ± 20 | Potency of inhibition at CYP2D6, in words (CYP2D6; compared with PRC200-SS): markedly reduced the potency of inhibition at CYP2D6; IC50 (CYP2D6; recombinant human P450, AMMC substrate, read-out: Mean CYP2D6 (IC50)): 600 nM; Blocking of hERG channel compared with PRC200-SS (hERG; in words): weaker than PRC200-SS at blocking this channel; IC50 (hERG; read-out: hERG (IC50), Rb+ efflux, eight doses in duplicate): 78800 nM
CN1CO[C@H](c2ccccc2)[C@@H](c2ccc3ccccc3c2)C1 [MCJ001-OH-Cyc-SS, (5S,6S)-3-methyl-5-(naphthalen-2-yl)-6-phenyl-1,3-oxazinane] | 1.8 ± 0.2 | greater binding at hSERT | 52 ± 5 | 2.7 ± 0.3 | S > N > D | 29 |  |  | antidepressant activity that was similar to that observed in rats treated with the positive control |  | Immobility in forced swim test, 5 mg/kg IP vs 5 mg/kg PO of the same compound (Male Sprague-Dawley rats): statistically (P≦0.04) less immobility than rats treated with MCJ001-OH-Cyc-SS (5 mg/kg PO); Immobility in forced swim test vs saline (Male Sprague-Dawley rats; 5 mg/kg IP, 5 mg/kg): statistically (P<0.04) less immobility; also recorded: statistically (P≦0.04) less immobility; Swimming in forced swim test vs saline (Male Sprague-Dawley rats; 5 mg/kg IP, 5 mg/kg): statistically (P<0.04) more swimming behavior; Climbing in forced swim test vs saline (Male Sprague-Dawley rats; 5 mg/kg PO): statistically (P≦0.04) more climbing; Immobility in forced swim test vs saline (Male Sprague-Dawley rats; 5 mg/kg PO): statistically (P≦0.04) less immobility; Swimming in forced swim test vs saline (Male Sprague-Dawley rats; 5 mg/kg PO): statistically (P≦0.04) more swimming
CN1Cc2c(N)cccc2C(c2ccccc2)C1 (stereo not shown) [Nomifensine, reference compound] |  |  |  |  | N > D > S |  |  |  |  |  | Potency (rank order, transport into rat brain synaptosomal preparations) [4]: N > D > S
